{"source": "patent US20080038364A1", "about": "“Methods of processing body parts for surgery” (priority 2006, published 2008)", "origin": "cited, not measured here", "key": {"[1]": {"tested_on": "bacteria, viruses and other microorganisms", "conditions": "compared with chlorine"}}, "note": "Read-outs that look alike come from different tables or passages of the source."}
{"compound": "O=[O+][O-]", "note": "[ozone]", "values": [{"measurement": "half-life of ozone gas breaking down to oxygen", "value": 20, "unit": "min"}, {"measurement": "disinfectant power relative to chlorine", "setting": "[1]", "value": 10, "unit": "times"}, {"measurement": "CT for Giardia Inactivation", "setting": "Giardia; 0.5 log inactivation, 5 °C", "value": 0.32, "unit": "CT units"}, {"measurement": "CT for Giardia Inactivation", "setting": "Giardia; 0.5 log inactivation, 10 °C", "value": 0.23, "unit": "CT units"}, {"measurement": "CT for Giardia Inactivation", "setting": "Giardia; 0.5 log inactivation, 15 °C", "value": 0.16, "unit": "CT units"}, {"measurement": "CT for Giardia Inactivation", "setting": "Giardia; 0.5 log inactivation, 20 °C", "value": 0.12, "unit": "CT units"}, {"measurement": "CT for Giardia Inactivation", "setting": "Giardia; 0.5 log inactivation, 25 °C", "value": 0.08, "unit": "CT units"}, {"measurement": "CT for Giardia Inactivation", "setting": "Giardia; 1.0 log inactivation, 5 °C", "value": 0.63, "unit": "CT units"}, {"measurement": "CT for Giardia Inactivation", "setting": "Giardia; 1.0 log inactivation, 10 °C", "value": 0.48, "unit": "CT units"}, {"measurement": "CT for Giardia Inactivation", "setting": "Giardia; 1.0 log inactivation, 15 °C", "value": 0.32, "unit": "CT units"}, {"measurement": "CT for Giardia Inactivation", "setting": "Giardia; 1.0 log inactivation, 20 °C", "value": 0.24, "unit": "CT units"}, {"measurement": "CT for Giardia Inactivation", "setting": "Giardia; 1.0 log inactivation, 25 °C", "value": 0.16, "unit": "CT units"}, {"measurement": "CT for Giardia Inactivation", "setting": "Giardia; 1.5 log inactivation, 5 °C", "value": 0.95, "unit": "CT units"}, {"measurement": "CT for Giardia Inactivation", "setting": "Giardia; 1.5 log inactivation, 10 °C", "value": 0.72, "unit": "CT units"}, {"measurement": "CT for Giardia Inactivation", "setting": "Giardia; 1.5 log inactivation, 15 °C", "value": 0.48, "unit": "CT units"}, {"measurement": "CT for Giardia Inactivation", "setting": "Giardia; 1.5 log inactivation, 20 °C", "value": 0.36, "unit": "CT units"}, {"measurement": "CT for Giardia Inactivation", "setting": "Giardia; 1.5 log inactivation, 25 °C", "value": 0.24, "unit": "CT units"}, {"measurement": "CT for Giardia Inactivation", "setting": "Giardia; 2.0 log inactivation, 5 °C", "value": 1.3, "unit": "CT units"}, {"measurement": "CT for Giardia Inactivation", "setting": "Giardia; 2.0 log inactivation, 10 °C", "value": 0.95, "unit": "CT units"}, {"measurement": "CT for Giardia Inactivation", "setting": "Giardia; 2.0 log inactivation, 15 °C", "value": 0.63, "unit": "CT units"}, {"measurement": "CT for Giardia Inactivation", "setting": "Giardia; 2.0 log inactivation, 20 °C", "value": 0.48, "unit": "CT units"}, {"measurement": "CT for Giardia Inactivation", "setting": "Giardia; 2.0 log inactivation, 25 °C", "value": 0.32, "unit": "CT units"}, {"measurement": "CT for Giardia Inactivation", "setting": "Giardia; 2.5 log inactivation, 5 °C", "value": 1.6, "unit": "CT units"}, {"measurement": "CT for Giardia Inactivation", "setting": "Giardia; 2.5 log inactivation, 10 °C", "value": 1.2, "unit": "CT units"}, {"measurement": "CT for Giardia Inactivation", "setting": "Giardia; 2.5 log inactivation, 15 °C", "value": 0.79, "unit": "CT units"}, {"measurement": "CT for Giardia Inactivation", "setting": "Giardia; 2.5 log inactivation, 20 °C", "value": 0.60, "unit": "CT units"}, {"measurement": "CT for Giardia Inactivation", "setting": "Giardia; 2.5 log inactivation, 25 °C", "value": 0.40, "unit": "CT units"}, {"measurement": "CT for Giardia Inactivation", "setting": "Giardia; 3.0 log inactivation, 5 °C", "value": 1.9, "unit": "CT units"}, {"measurement": "CT for Giardia Inactivation", "setting": "Giardia; 3.0 log inactivation, 10 °C", "value": 1.4, "unit": "CT units"}, {"measurement": "CT for Giardia Inactivation", "setting": "Giardia; 3.0 log inactivation, 15 °C", "value": 0.95, "unit": "CT units"}, {"measurement": "CT for Giardia Inactivation", "setting": "Giardia; 3.0 log inactivation, 20 °C", "value": 0.72, "unit": "CT units"}, {"measurement": "CT for Giardia Inactivation", "setting": "Giardia; 3.0 log inactivation, 25 °C", "value": 0.48, "unit": "CT units"}, {"measurement": "CT for Virus Inactivation", "setting": "virus organisms; 2.0 log inactivation, 5 °C", "value": 0.6, "unit": "CT units"}, {"measurement": "CT for Virus Inactivation", "setting": "virus organisms; 2.0 log inactivation, 10 °C", "value": 0.5, "unit": "CT units"}, {"measurement": "CT for Virus Inactivation", "setting": "virus organisms; 2.0 log inactivation, 15 °C", "value": 0.3, "unit": "CT units"}, {"measurement": "CT for Virus Inactivation", "setting": "virus organisms; 2.0 log inactivation, 20 °C", "value": 0.25, "unit": "CT units"}, {"measurement": "CT for Virus Inactivation", "setting": "virus organisms; 2.0 log inactivation, 25 °C", "value": 0.15, "unit": "CT units"}, {"measurement": "CT for Virus Inactivation", "setting": "virus organisms; 3.0 log inactivation, 5 °C", "value": 0.9, "unit": "CT units"}, {"measurement": "CT for Virus Inactivation", "setting": "virus organisms; 3.0 log inactivation, 10 °C", "value": 0.8, "unit": "CT units"}, {"measurement": "CT for Virus Inactivation", "setting": "virus organisms; 3.0 log inactivation, 15 °C", "value": 0.5, "unit": "CT units"}, {"measurement": "CT for Virus Inactivation", "setting": "virus organisms; 3.0 log inactivation, 20 °C", "value": 0.4, "unit": "CT units"}, {"measurement": "CT for Virus Inactivation", "setting": "virus organisms; 3.0 log inactivation, 25 °C", "value": 0.25, "unit": "CT units"}, {"measurement": "CT for Virus Inactivation", "setting": "virus organisms; 4.0 log inactivation, 5 °C", "value": 1.2, "unit": "CT units"}, {"measurement": "CT for Virus Inactivation", "setting": "virus organisms; 4.0 log inactivation, 10 °C", "value": 1.0, "unit": "CT units"}, {"measurement": "CT for Virus Inactivation", "setting": "virus organisms; 4.0 log inactivation, 15 °C", "value": 0.6, "unit": "CT units"}, {"measurement": "CT for Virus Inactivation", "setting": "virus organisms; 4.0 log inactivation, 20 °C", "value": 0.5, "unit": "CT units"}, {"measurement": "CT for Virus Inactivation", "setting": "virus organisms; 4.0 log inactivation, 25 °C", "value": 0.3, "unit": "CT units"}]}
